By EC50 is commonly meant the concentration at which the effect is half-maximal.

Drawing on patent publication US12209096B2, “Compounds and compositions for inducing chondrogenesis” (NOVARTIS AG, priority 2017, dated 2025), this text covers EC50 and Emax for eleven compounds.

The subject of this test is NHACs. The test can be described thus: calcium flux assay. Format: cell-based, human. The following applies: Homo sapiens; for Emax: read-out: (A) % Efficacy. Put shortly: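 FLIPR fluorescence (ex 470–495 nm, em 515–575 nm) was read before and after compound dispense at the indicated dose. Chondrocytes (NHACs), 2000 cells/well, had been dye-loaded 24 h after plating with Calcium 5 in HBSS/HEPES plus 5 mM probenecid, 1 h, room temperature.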
(Calcium assays in cells follow changes in intracellular calcium, usually with a dye or a luminescent sensor.)

For the compound `Cc1cc([C@@H]2[C@@H](C(=O)Nc3ccc(Cl)c(Cl)c3)[C@H]3C[C@@](C)(O)[C@@H]2O3)ccn1` [Example 178, (1R,2R,3S,4R,5R)—N-(3,4-dichlorophenyl)-5-hydroxy-5-methyl-3-(2-methylpyridin-4-yl)-7-oxabicyclo[2.2.1]heptane-2-carboxamide], the EC50 was above 50 µM and the Emax is 1%.
Taken in the same sequence, the figures for `Nc1ncc([C@H]2[C@H]3O[C@H](C[C@@H]3O)[C@@H]2C(=O)Nc2ccc(Cl)c(Cl)c2)cn1` [Example 143, (1R,2R,3S,4R,5S)-3-(2-aminopyrimidin-5-yl)-N-(3,4-dichlorophenyl)-5-hydroxy-7-oxabicyclo[2.2.1]heptane-2-carboxamide] were above 50 µM and 0%.
Taken in the same sequence, the figures for `O=C(Nc1ccc(Cl)c(Cl)c1)[C@@H]1[C@@H](c2cnc(F)nc2)[C@H]2O[C@@H]1C[C@@H]2O` [Example 151, (1R,2R,3S,4R,5S)—N-(3,4-dichlorophenyl)-3-(2-fluoropyrimidin-5-yl)-5-hydroxy-7-oxabicyclo[2.2.1]heptane-2-carboxamide] were above 50 µM and 0%.
For `Cc1cc([C@H]2[C@H]3O[C@H]([C@@H]4C[C@@H]43)[C@@H]2C(=O)Nc2ccc(Cl)c(F)c2)ccn1` [Example 68, (1S,2S,4R,5R,6R,7S)—N-(4-chloro-3-fluorophenyl)-7-(2-methylpyridin-4-yl)-8-oxatricyclo[3.2.1.0^2,4]octane-6-carboxamide] the same measures were 15 µM and 306%.
Regarding `Cc1cc([C@H]2[C@H]3O[C@H](C[C@@H]3O)[C@@H]2C(=O)Nc2ccc(Cl)c(Cl)c2)ccn1` (racemic) [Example 77, rac-(1R,2R,3S,4R,5S)—N-(3,4-dichlorophenyl)-5-hydroxy-3-(2-methylpyridin-4-yl)-7-oxabicyclo[2.2.1]heptane-2-carboxamide], the EC50 amounted to 26 µM and the Emax was 49%.
Turning to `Cc1cc([C@H]2[C@H]3O[C@H](C[C@H]3F)[C@@H]2C(=O)Nc2cccc(C(F)(F)F)c2)ccn1` [Example 96, (1R,2R,3S,4R,5R)-5-fluoro-3-(2-methylpyridin-4-yl)-N-(3-(trifluoromethyl)phenyl)-7-oxabicyclo[2.2.1]heptane-2-carboxamide], the EC50 was determined as 14 µM and the Emax turned out to be 281%.
Turning to `Cc1ncc([C@H]2[C@H]3O[C@H](C[C@@H]3O)[C@H]2C(=O)Nc2ccc(Cl)c(Cl)c2)cn1` [Example 56, (1R,2S,3S,4R,5S)—N-(3,4-dichlorophenyl)-5-hydroxy-3-(2-methylpyrimidin-5-yl)-7-oxabicyclo[2.2.1]heptane-2-carboxamide], the EC50 is above 50 µM and the Emax turned out to be 0%.
Taken in the same sequence, the figures for `O=C(Nc1ccc(Cl)c(Cl)c1)[C@H]1[C@@H]2O[C@@H]([C@H]3C[C@H]32)[C@@H]1c1ccnc(F)c1` [Example 119, (1S,2S,4R,5R,6R,7S)—N-(3,4-dichlorophenyl)-7-(2-fluoropyridin-4-yl)-8-oxatricyclo[3.2.1.0^2,4]octane-6-carboxamide] were 25 µM and 149%.
Taken in the same sequence, the figures for `Cc1cc([C@@H]2[C@@H](C(=O)Nc3cnc(Cl)c(Cl)c3)[C@@H]3O[C@H]2C[C@H]3F)ccn1` [Example 110, (1S,2R,3S,4S,6R)—N-(5,6-dichloropyridin-3-yl)-6-fluoro-3-(2-methylpyridin-4-yl)-7-oxabicyclo[2.2.1]heptane-2-carboxamide] were 28 µM and 199%.
With `COc1cc([C@H]2[C@H]3O[C@H]([C@@H]4C[C@@H]43)[C@H]2C(=O)Nc2ccc(Cl)c(Cl)c2)ccn1` [Example 24, (1S,2S,4R,5R,6S,7S)-N-(3,4-dichlorophenyl)-7-(2-methoxypyridin-4-yl)-8-oxatricyclo[3.2.1.0^2,4]octane-6-carboxamide], the half-maximal effective concentration (EC50) is 11 µM and the Emax came to 71%.
For `COc1cc([C@@H]2[C@@H]3O[C@@H](C[C@H]3O)[C@@H]2C(=O)Nc2ccc(Cl)c(Cl)c2)ccn1` (single isomer, unassigned) [Example 49b] the same measures were above 50 µM and 31%.
